Where a name gives a salt, the structure may show the parent alone. Some results are limits rather than exact numbers.

The target of one experiment is T1, human 11β-HSD1 enzyme (Homo sapiens, UniProt P28845).
T1 construct: stably transfected with a construct containing the full-length gene coding for the human 11β-HSD1 enzyme; expressed in transfected cells; host or cells: HEK293 (HEK293/11β-HSD1 cells)
T1 sequence (P28845 whole entry): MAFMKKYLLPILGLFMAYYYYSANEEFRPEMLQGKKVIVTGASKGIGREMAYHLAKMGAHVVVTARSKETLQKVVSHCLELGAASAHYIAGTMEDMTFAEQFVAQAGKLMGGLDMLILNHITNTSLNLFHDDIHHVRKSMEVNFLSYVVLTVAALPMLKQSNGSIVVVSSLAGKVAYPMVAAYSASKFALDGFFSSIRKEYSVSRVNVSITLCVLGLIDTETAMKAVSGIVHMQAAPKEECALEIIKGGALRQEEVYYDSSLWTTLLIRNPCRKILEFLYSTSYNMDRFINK
The experiment can be described thus: Cellular in vitro 11β-HSD1 enzyme inhibition assay (SPA, HEK293/11β-HSD1 cells). In kind it is cell-based. To be noted: HEK293, less than or equal to 1000 nM (1 μM). How it is done: Cellular In Vitro 11β-HSD1 Enzyme Inhibition Assay
Compounds were assessed by a Scintillation Proximity Assay (SPA) performed according to the following protocol:
HEK293 cells were stably transfected with a construct containing the full-length gene coding for the human 11β-HSD1 enzyme to create HEK293/11β-HSD1 cells. Cells were routinely cultured in DMEM containing 10% calf foetal serum, 1% glutamine, and 1% penicillin and streptomycin. Prior to assay, cells were plated at 2×10^4 cells/well in 96-well poly-D-Lys coated flat-bottomed microplates and incubated in 5% CO2, 95% O2 at 37° C. for 24 hours. The media in each well was removed immediately before assay.
Compounds to be tested were dissolved in DMSO at 10 mM and serially diluted into water containing 10% DMSO. Diluted compounds at a volume of 10 μL were added to wells of a 96-well V-bottomed microplate. […] This solution (100 μL/well) was transferred to the plate containing the cells. The plate was then incubated in 5% CO2, 95% O2 at 37° C. for 2 hours.
Following this incubation, 50 μL of the assay solution was transferred to each well of a 96-well scintillation microplate. A mixture consisting of anti-mouse YSi SPA beads, pre-mixed with anti-cortisol antibody in assay buffer (50 mM Tris.HCl, pH 7.0; 300 mM NaCl; 1 mM EDTA, 5% glycerol) was prepared and 50 μL added to each well of the scintillation microplate. An adhesive strip was applied to the microplate and the plate gently shaken for at least 2 hours at room temperature, and then spun briefly on a low speed centrifuge. The plate was read on a scintillation counter suitable for 96-well microplates. For the calculation of percentage inhibition, a series of wells were added to the plate that represented the assay maximum and the assay minimum: one set that contained substrate without cells (mimimum) and another set that contained substrate and cells without any compound (maximum).
The calculation of median inhibitory concentration (IC50) values for the compounds was performed using GraphPad Prism® software. Dose-response curves for each compound were plotted as fractional inhibition and data fitted to the four parameter logistic equation.
In general, IC50 refers to the point on the concentration scale where inhibition reaches its midpoint. In the case of `O=C(c1csc(C2CCNCC2)c1)N1CCCCC1c1ccccc1` (stereo not shown) [CC-017, (2-Phenyl-piperidin-1-yl)-(5-piperidin-4-yl-thiophen-3-yl)methanone], the IC50 was ≤ 1 µM.

Regarding `CC(=O)N1CCC(c2cc(C(=O)N3CCCC(C)(C)CC3)cs2)CC1`, the IC50 was ≤ 1 µM.

With `O=C(c1csc(C2CCNCC2)c1)N1CCCC2CCCCC21` (single isomer, unassigned) [CC-044, trans-(Octahydro-quinolin-1-yl)-(5-piperidin-4-yl-thiophen-3-yl)-methanone], the IC50 is ≤ 1 µM.

`CC1(C)CCCN(C(=O)c2csc(C3CCN(C(=O)CO)CC3)c2)CC1` [CC-113]: the IC50 was ≤ 1 µM.

For the molecule `O=C1CCCN1c1cc(C(=O)N2CCCC3CCCCC32)cs1` (stereo not shown) [CC-049], the IC50 is ≤ 1 µM.

Take `O=C(CO)N1CC=C(c2cc(C(=O)N3CCCC4CCCCC43)cs2)CC1` (stereo not shown) [CC-090]: the IC50 is ≤ 1 µM.

On to `O=C(c1csc(C2CCNCC2)c1)N1CCCC2CCCCC21` (stereo not shown) [CC-040], for which the IC50 was ≤ 1 µM.

Regarding `CC1(C)CC2CC(C)(CN2C(=O)c2csc(CC(F)(F)F)c2)C1` (stereo not shown) [AA-018], the IC50 was ≤ 1 µM.

For the molecule `CCc1cc(C(=O)N2CCCCC2c2ccccc2)cs1` (stereo not shown) [AA-021], the IC50 is ≤ 1 µM.

As to `CCc1cc(C(=O)N2CCCCCC2)c(Br)s1` [AA-005], the IC50 is ≤ 1 µM.

Turning to `O=C(CO)N1CCC(c2cc(C(=O)N3CCC[C@@H]4CCCC[C@@H]43)cs2)CC1` (relative stereo) [CC-053, cis-2-Hydroxy-1-{4-[4-(octahydro-quinoline-1-carbonyl)-thiophen-2-yl]-piperidin-1-yl}-ethanone], the IC50 is ≤ 1 µM.

For the molecule `CCc1cc(C(=O)N2CCCC(C)(C)CC2)cs1` [AA-019], the IC50 was ≤ 1 µM.

For the molecule `CC(=O)N1CCC(c2cc(C(=O)N3CCC[C@@H]4CCCC[C@@H]43)cs2)CC1` (relative stereo) [CC-035, cis-1-{4-[4-(Octahydro-quinoline-1-carbonyl)-thiophen-2-yl]-piperidin-1-yl}-ethanone], the IC50 is ≤ 1 µM.

As for `CC(C)C(=O)N1CCC(c2cc(C(=O)N3CCCC4CCCCC43)cs2)CC1` (stereo not shown) [CC-081], the IC50 was ≤ 1 µM.

Turning to `COCC(=O)N1CCC(c2cc(C(=O)N3CCCC4CCCCC43)cs2)CC1` (stereo not shown) [CC-083], the IC50 was ≤ 1 µM.

On to `COCCNC(=O)N1CCC(c2cc(C(=O)N3CCCC4CCCCC43)cs2)CC1` (stereo not shown) [CC-164], for which the IC50 is ≤ 1 µM.

Consider `O=C(c1csc(C2CCOCC2)c1)N1CCCC2CCCCC21` (stereo not shown) [CC-028], for which the IC50 was ≤ 1 µM.

With `CCCCCc1cc(C(=O)N2CC3(C)CC2CC(C)(C)C3)cs1` (stereo not shown) [AA-017], the IC50 is ≤ 1 µM.

As to `CS(=O)(=O)NCCC(=O)N1CC=C(c2cc(C(=O)N3CCCC4CCCCC43)cs2)CC1` (stereo not shown) [CC-091], the IC50 was ≤ 1 µM.

In the case of `NC(=O)CN1CCC(c2cc(C(=O)N3CCCC4CCCCC43)cs2)CC1` (stereo not shown) [CC-108], the IC50 was ≤ 1 µM.

On to `O=C(c1csc(C2CCS(=O)(=O)CC2)c1)N1CCC[C@@H]2CCCC[C@@H]21` (racemic) [CC-138, cis-[5-(1,1-Dioxo-hexahydro-thiopyran-4-yl)-thiophen-3-yl]-(octahydro-quinolin-1-yl)methanone], for which the IC50 was ≤ 1 µM.

For the molecule `O=C(c1ccno1)N1CCC(c2cc(C(=O)N3CCCC4CCCCC43)cs2)CC1` (stereo not shown) [CC-051], the IC50 is ≤ 1 µM.

Take `O=C(c1csc(C2CCOCC2)c1)N1CCCC2(CCCCC2)C1` [CC-077]: the concentration for half-maximal inhibition (IC50) is ≤ 1 µM.

For `NC(=O)N1CCC(c2cc(C(=O)N3CCCC4CCCCC43)cs2)CC1` (stereo not shown) [CC-144], the IC50 is ≤ 1 µM.

Still in this experiment, the particulars now being: HEK293, more than 1000 nM (1.0 μM) and less than or equal to 30 μM.
In the case of `O=C(c1csc(C2CCN(CCS(=O)(=O)N3CCCC3)CC2)c1)N1CCCC2CCCCC21` (stereo not shown) [CC-087], the IC50 lay within 1 to 30 µM.

Consider `O=C(c1csc(C2CCNCC2)c1)N1CCCCC1c1ccc(F)cc1` (stereo not shown) [CC-112], for which the IC50 lay in the range of 1 to 30 µM.

`O=C(c1ccccc1)N1CCC(c2cc(C(=O)N3CCCC4CCCCC43)cs2)CC1` (stereo not shown) [CC-110] returned a concentration for half-maximal inhibition (IC50) of 1 to 30 µM.

With `O=C(c1csc(C2CCN(c3nc4ccccc4o3)CC2)c1)N1CCCC2CCCCC21` (stereo not shown) [CC-129], the IC50 lay within 1 to 30 µM.

For `CC1(C)CCCN(C(=O)c2csc(C3=CCNCC3)c2)CC1` [CC-124], the IC50 was 1 to 30 µM.

`CC1(C)CCCN(C(=O)c2csc(C3CCN(C(=O)c4ccno4)CC3)c2)CC1` [CC-095]: the IC50 was 1 to 30 µM.

Turning to `O=C(c1csc(C2CCOCC2)c1)N1CCCCC1` [CC-001, Piperidin-1-yl-[5-(tetrahydro-pyran-4-yl)-thiophen-3-yl]-methanone], the IC50 is 1 to 30 µM.

Molecule `CC1(C)CC2CC(C)(CN2C(=O)c2csc(C3CCN(C(=O)OCc4ccccc4)CC3)c2)C1` (stereo not shown) [CC-071] yielded an IC50 of 1 to 30 µM.

For `O=C(c1csc(C2CCNCC2)c1)N1CCCC2CCCCC21` (single isomer, unassigned) [CC-045, trans-(Octahydro-quinolin-1-yl)-(5-piperidin-4-yl-thiophen-3-yl)-methanone], the 50% inhibitory concentration (IC50) was in the range of 1 to 30 µM.

For `Cn1cc(CN2CCC(c3cc(C(=O)N4CCC[C@@H]5CCCC[C@@H]54)cs3)CC2)cn1` (racemic) [CC-152, cis-1-(1-Methyl-1H-pyrazol-4-ylmethyl)-4-[4-(octahydro-quinoline-1-carbonyl)-thiophen-2-yl]-piperidinium formate], the IC50 is 1 to 30 µM.

The molecule `CCc1cc(C(=O)N2CCC(c3ccccc3)C2)c(Cl)s1` (stereo not shown) [AA-008] came in with an IC50 of 1 to 30 µM.

`O=C(c1csc(C2CCOCC2)c1)N1CCCC(F)(F)CC1`: the half-inhibitory concentration (IC50) fell in the range of 1 to 30 µM.

`CC(C)(C)C(=O)N1CCC(c2cc(C(=O)N3CCCC4CCCCC43)cs2)CC1` (stereo not shown) [CC-100] returned an IC50 of 1 to 30 µM.

With `O=C(c1csc(C2CCN(c3ncccn3)CC2)c1)N1CCC[C@@H]2CCCC[C@@H]21` (relative stereo) [CC-121, cis-(Octahydro-quinolin-1-yl)-[5-(1-pyrimidin-2-yl-piperidin-4-yl)-thiophen-3-yl]-methanone], the IC50 was in the range of 1 to 30 µM.

On to `CC(=O)N1CCC(c2cc(C(=O)N3CCCC4CCCCC43)cs2)CC1` (stereo not shown) [CC-036], for which the IC50 lay in the range of 1 to 30 µM.

`CC1(C)CCN(C(=O)c2csc(C3CCOCC3)c2)CC1` [CC-011] came in with an IC50 of 1 to 30 µM.

On to `O=C(c1csc(C2CCCNC2)c1)N1CCCCCC1` (stereo not shown) [CC-015, Azepan-1-yl-(5-piperidin-3-yl-thiophen-3-yl)-methanone], for which the IC50 lay in the range of 1 to 30 µM.

For `CC1(C)CCCCN(C(=O)c2csc(C3=CCNCC3)c2)C1` [CC-125], the IC50 lay within 1 to 30 µM.

As to `O=C(c1csc(COc2ccc(-n3ccnc3)cc2)c1)N1CCCCC1` [BB-003], the IC50 was 1 to 30 µM.

As for `COCc1cc(C(=O)N2CCCCCC2)cs1` [BB-005], the IC50 lay in the range of 1 to 30 µM.

Take `CC1(C)CCCCN(C(=O)c2csc(C3CCNCC3)c2)C1` [CC-024]: the IC50 is 1 to 30 µM.

In the case of `O=C(c1csc(C2CCN(c3ccccn3)CC2)c1)N1CCCC2CCCCC21` (stereo not shown) [CC-120], the IC50 is 1 to 30 µM.

`CC1(C)CC2CC(C)(CN2C(=O)c2csc(C3CCNCC3)c2)C1` (single isomer, unassigned) [CC-076, (5-Piperidin-4-yl-thiophen-3-yl)-(1,3,3-trimethyl-6-aza-bicyclo[3.2.1]oct-6-yl)-methanone] returned an IC50 of 1 to 30 µM.

Turning to `CC(=O)N1CCC(c2cc(C(=O)N3CCCCC3c3ccccc3)cs2)CC1` (stereo not shown) [CC-098], the IC50 was 1 to 30 µM.

As to `CC(C)S(=O)(=O)N1CCC(c2cc(C(=O)N3CCCC4CCCCC43)cs2)CC1` (stereo not shown) [CC-104], the IC50 is 1 to 30 µM.

The values above are taken from patent US8362008B2 (The University Of Edinburgh, priority 2007, dated 2013).
